Values quoted from earlier work in patent publication US10485768B2, “Treatment for glioblastoma” (SignPath Pharma Inc., priority 2015, dated 2019).

Assays:
[1] = system: human primary and recurrent GBM cell lines
human glioma U87 cells = settings: U87 cells xenografted into athymic mice
C6 implant rat glioma = C6 implant rat glioma model

COc1cc(/C=C/C(=O)CC(=O)/C=C/c2ccc(O)c(OC)c2)ccc1O [Curcumin, diferuloylmethane]
cell growth [1]: reduced cell growth
growth of xenografted tumor cells (human glioma U87 cells): suppress growth
brain tumor volume (C6 implant rat glioma): reduction in brain tumor volume
